US20080269242A1, “Crystalline Salts of 7-[4-(4-Naphthalen-1-Yl-Piperazin-1-Yl)-Butoxy]-3,4-Dihydro-1H-[1,8]Naphthyridine-2-One” (priority 2005, published 2008)

Key:
[1] = tested on: spontaneous locomotor activity (SLMA); assay: Spontaneous locomotor activity (SLMA) in rats; type: in vivo, Male Sprague-Dawley rats; conditions: rat; for SLMA, Mean centimeters traveled in 1 hour±SEM: 60-minute absorption period, recorded 1 hour, vehicle 4066±297
Excerpt: Effects of 7-[4-(4-naphthalen-1-yl-piperazin-1-yl)-butoxy]-3,4-dihydro-1H-[1,8]naphthyridin-2-one on spontaneous locomotors activity (SLMA) was investigated in an in vivo animal model, which is predictive of antipsychotic efficacy.
Method: Male Sprague-Dawley rats were used in studies where SLMA was quantified using an activity monitor in a sound-attenuated chamber. Rats were randomly assigned to various groups (including a vehicle control group). 7-[4-(4naphthalen-1-yl-piperazin-1-yl)-butoxy]-3,4-dihydro-1H-[1,8]naphthyridin-2-one at doses of 0.1 mg/kg, 0.3 mg/kg, 1 mg/kg, 3 mg/kg, and 10 mg/kg, or vehicle were administered orally. Following a 60-minute absorption period, each rat was placed into the test chamber, and SLMA was recorded for a 1-hour time-period. SLMA is expressed as centimeters traveled. Statistical analysis was performed using a one-way ANOVA followed by a post hoc Dunnett's test.

dopamine D2 receptor = dopamine D2 receptor (Homo sapiens, UniProt P14416); conditions: background statement, compound of WO2005/019215; cited from earlier work
Chain of dopamine D2 receptor (P14416 whole entry, species assumed): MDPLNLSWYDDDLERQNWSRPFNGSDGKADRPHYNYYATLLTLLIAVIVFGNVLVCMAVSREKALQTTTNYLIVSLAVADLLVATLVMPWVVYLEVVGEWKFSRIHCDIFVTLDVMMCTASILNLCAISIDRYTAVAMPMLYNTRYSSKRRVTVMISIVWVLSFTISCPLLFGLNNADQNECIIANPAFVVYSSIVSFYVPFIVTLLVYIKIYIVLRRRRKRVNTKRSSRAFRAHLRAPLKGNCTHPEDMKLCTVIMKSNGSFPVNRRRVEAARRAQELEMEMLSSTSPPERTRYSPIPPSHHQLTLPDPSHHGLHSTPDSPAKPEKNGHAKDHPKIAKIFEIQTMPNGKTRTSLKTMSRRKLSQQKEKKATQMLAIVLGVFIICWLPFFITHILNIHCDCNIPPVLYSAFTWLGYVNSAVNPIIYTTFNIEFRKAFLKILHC

D2 receptors = D2 receptors (Homo sapiens, UniProt P14416); conditions: background statement, compound of WO2005/019215; cited from earlier work
Chain of D2 receptors (P14416 whole entry, species assumed): as above

[2] = Solid-state stability study, open dish; type: physicochemical; conditions: for solid-state stability (degradation): open dish, 6 month
[3] = Conversion of crystalline form on standing; type: physicochemical; conditions: ambient temperatures

O=C1CCc2ccc(OCCCCN3CCN(c4cccc5ccccc45)CC3)nc2N1 [7-[4-(4-naphthalen-1-yl-piperazin-1-yl)-butoxy]-3,4-dihydro-1H-[1,8]naphthyridin-2-one]
SLMA, Mean centimeters traveled in 1 hour±SEM ([1]; 0.1 mg/kg orally, not statistically different from vehicle): 3998±133 centimeters
SLMA, Mean centimeters traveled in 1 hour±SEM ([1]; 0.3 mg/kg orally, p<0.05 vs vehicle): 2510±185 centimeters
SLMA, Mean centimeters traveled in 1 hour±SEM ([1]; 1 mg/kg orally, p<0.05 vs vehicle): 1977±173 centimeters
SLMA, Mean centimeters traveled in 1 hour±SEM ([1]; 3 mg/kg orally, p<0.05 vs vehicle): 1742±206 centimeters
SLMA, Mean centimeters traveled in 1 hour±SEM ([1]; 10 mg/kg orally, p<0.05 vs vehicle): 1068±208 centimeters
effect on SLMA (in words) ([1]; oral, 0.1-10 mg/kg): dose-dependent reduction
minimum effective dose (reduction of SLMA) ([1]; oral, estimated): 0.3 mg/kg
binding to the dopamine D2 receptor (in words) (dopamine D2 receptor): binds
activity at D2 receptors (in words) (D2 receptors): partial agonist

O=C1CCc2ccc(OCCCCN3CCN(c4cccc5ccccc45)CC3)nc2N1.O=P(O)(O)O [Form A, 7-[4-(4-naphthalen-1-yl-piperazin-1-yl)-butoxy]-3,4-dihydro-1H-[1,8]naphthyridin-2-one mono-phosphate]
solid-state stability (degradation) ([2]; 25° C./60% relative humidity): little or no degradation
solid-state stability (degradation) ([2]; 30° C./70% relative humidity): little or no degradation
solid-state stability (degradation) ([2]; 40° C./75% relative humidity): little or no degradation
relative stability of crystalline forms ([2]; Form A compared with Form B): more stable than Form B

O=C1CCc2ccc(OCCCCN3CCN(c4cccc5ccccc45)CC3)nc2N1.O=P(O)(O)O [Form B, 7-[4-(4-naphthalen-1-yl-piperazin-1-yl)-butoxy]-3,4-dihydro-1H-[1,8]naphthyridin-2-one mono-phosphate]
form conversion on standing [3]: convert to Form A
